Laboratory results as given in patent US12263187B2, “Treatment of bone marrow pathologies with polysulfated polysaccharides” (PARADIGM BIOPHARMACEUTICALS LTD, priority 2017, dated 2025).
“Also recorded” adds a separate entry of the source.

Key:
[1] = system: Knee OA patients with Bone Marrow Edema Lesions; assay: Example 1: PPS in knee OA patients with Bone Marrow Edema Lesions on MRI (TGA Special Access Scheme); type: in vivo, human; settings: standard four week course of PPS
[2] = system: patient with chronic lower back pain with a Modic Type 1 pattern on MRI; assay: Example 3: case report for chronic low back pain with Modic Type 1 pattern; type: in vivo, human; settings: patient one
Description: Patient one, a person with chronic lower back pain with a Modic Type 1 pattern on MRI scan of the L3/L4 and L4 L5 region of the spine presented in the clinics with unresolved persistent pain despite current standard of care treatment with Mobic, an NSAID.
The baseline NRS pain score prior to treatment with PPS was a high score of 7. Patient was administered by subcutaneous injection a dose of 150 mg fixed dose of PPS twice weekly for 4 weeks (ie a total of 8 injections). […] During the course of the treatment the patient had abstained from any other therapeutic intervention.

[3] = fraction of the activity of heparin; cited from earlier work
Modic Changes = assay: Further work: Modic Changes assessed by MRI after SC PPS twice-weekly for 6 weeks; type: in vivo; settings: 2 mg/kg PPS or fixed dose of 150 mg, slow SC injection twice-weekly for 6 weeks
[4] = system: Knee OA patients with Bone Marrow Edema Lesions; assay: Example 1: PPS in knee OA patients with Bone Marrow Edema Lesions on MRI (TGA Special Access Scheme); type: in vivo, human; design: key to After PPS/BMEL: Severe: (>20 mm); Moderate: (5 mm to 20 mm); Minimal: (<5 mm); Absent; settings: for After PPS/BMEL / After PPS/NRS Pain / After PPS/Lysholm Knee Score: 2 mg/kg IM 2x weekly for 3 weeks; for After PPS/NRS Pain / After PPS/Lysholm Knee Score: scored 2 to 4 weeks after last injection; for After PPS/NRS Pain: scale 0-10; for After PPS/Lysholm Knee Score: scale 0-100
Text: Example 1 is a study of the safety, tolerability and results of patients treated with PPS with Bone Marrow Edema Lesions of the knee and suffering from osteoarthritis under the TGA Special Access Scheme (B). (Approval to use PPS as treatment for the patient was acquired from Department of Health-Therapeutic Goods Administration, Australian Government under the Special Access Scheme (SAS) since the injectable form of PPS was not a registered product in Australia.)
Patients in the study had the following characteristics: • High pain scores • Poor joint function scores • MRI evidence of Bone Marrow Edema Lesions and joint effusions • Kellgren-Lawrence (3-4) OA subjects currently on waiting list for Total Knee Replacement • Failed standard of care including intraarticular injections of corticosteroids • The protocol featured the following: • Treatment: 2× weekly intramuscular injections of 2 mg/kg for 3 weeks (total of 6 injections) • All patients abstained from NSAIDs during PPS treatment • The treatment outcomes of pain and function were scored before and after PPS treatment 2 to 4 weeks after the last PPS injection • All patients had baseline subchondral BML.
Numerical Rating Scale (NRS) is an 11-point scale (0-10). A state of no pain is 0 and the worst pain imaginable is 10.
Lysholm Knee Score is a total score of 0-100 is calculated based on the results from the eight functional components of the Lysholm knee score scale: Limp (5 points), Support (5 points), Locking (15 points), Instability (25 points), Pain (25 points), Swelling (10 points), Stair climbing (10 points), and Squatting (5 points). The total score is assigned to rating categories as follows: 95-100 indicates excellent, 84-94 indicates good, 65-83 indicates fair and <65 indicates poor function.

BMEL = assay: Further work: BMEL assessed by MRI after SC PPS twice-weekly for 6 weeks; type: in vivo; settings: 2 mg/kg PPS or fixed dose of 150 mg, slow SC injection twice-weekly for 6 weeks
[5] = system: person with knee osteoarthritis and subchondral bone marrow edema lesions; assay: Example 2: case report of knee osteoarthritis with subchondral BML; type: in vivo, human
Description: The patient was administered a course of Pentosan Polysulphate Sodium (PPS) intramuscularly twice weekly for 3 weeks. […] These MRI interpretations corroborate improved clinical outcome measures ensuing therapeutic intervention with PPS.
A person with a history of arthroscopic partial medial meniscectomy presented with pain of the left knee and was on a waiting list for total knee replacement. […] The BML in the medial femoral condyle measured 11×7×12 mm (CC×transverse×AP) and the medial tibial plateau BML measured 8×8×8 mm (CC×transverse×AP). […] Following patient consent, the pain assessment score was determined by the Numerical Rating Scale (NRS) and functional capacity assessments included the Lysholm knee score. At pre-treatment, the NRS pain score was severe with a score of 8 out of 10 (range 0-10) and the Lysholm Knee score was 37 out of 100 reflecting poor knee function indicated by problems in stair climbing and limping.
Since PPS is a weak anticoagulant with 1/15 the activity of heparin, the patient was monitored for safety by assessments of complete blood count, APTT, prothrombin time, liver function tests, renal function tests and serum calcium prior to commencement of treatment and periodically during treatment with Pentosan Polysulphate Sodium. The clinical status of the patient was checked regularly throughout the course of the treatment and follow up period.
After evaluation, the patient was considered suitable for treatment with Pentosan Polysulphate Sodium (PPS) under the SAS. The patient was administered 2 mg/kg of PPS twice weekly with a minimum of three and a maximum of four days between dosages. Six intramuscular injections were administered into the gluteus maximus muscle over a three-week period (2 injections per week). Three follow-up appointments were made at 10, 24 and 38 days post-completion of injection regimen.

Pentosan Polysulphate Sodium [PPS]
BMEL on MRI [1]: clearly visible BMEL reduction
pain and mobility scores [1]: improved
pain soon after the 4th injection ([2]; 150 mg fixed dose SC twice weekly): improvement in pain
adverse events ([2]; 150 mg fixed dose SC twice weekly for 4 weeks, during and after treatment): No adverse events
anticoagulant activity relative to heparin [3]: 1/15
Modic Changes as assessed by magnetic resonance imaging (Modic Changes): consistent resolution
After PPS/BMEL ([4]; patient four, before PPS: Moderate (5 mm to 20 mm)): Minimal ((<5 mm))
After PPS/NRS Pain ([4]; patient four, before PPS: 4): 1
After PPS/Lysholm Knee Score ([4]; patient four, before PPS: 73): 90
After PPS/BMEL ([4]; patient three, before PPS: Severe (>20 mm)): Moderate ((5 mm to 20 mm))
After PPS/NRS Pain ([4]; patient three, before PPS: 4): 0
After PPS/Lysholm Knee Score ([4]; patient three, before PPS: 54): 73
After PPS/BMEL ([4]; patient two, before PPS: Moderate (5 mm to 20 mm)): Absent
After PPS/NRS Pain ([4]; patient two, before PPS: 8): 0
After PPS/Lysholm Knee Score ([4]; patient two, before PPS: 37): 70
adverse events ([4]; patients with BMEL and osteoarthritis under TGA SAS(B), 2 mg/kg IM 2x weekly): no adverse events were reported
BMEL volume as assessed by magnetic resonance imaging (BMEL): consistent BMEL volume reduction
bone marrow oedema lesions at the medial femoral condyle and medial tibial plateau on MRI ([5]; 2 mg/kg IM twice weekly for 3 weeks (6 injections), MRI five weeks after first injection, pre-treatment BML 11x7x12 mm and 8x8x8 mm): resolution of medial compartment bone oedema; also recorded: complete resolution; also recorded: complete reduction
knee (joint) effusion on MRI ([5]; 2 mg/kg IM twice weekly for 3 weeks, axial imaging at level of suprapatellar pouch, five weeks after first injection): reduction in size of knee effusion; also recorded: complete resolution; also recorded: marked reduction; also recorded: reduction in the size
adverse events ([5]; 2 mg/kg IM twice weekly for 3 weeks, during treatment and follow up period): did not present with any drug-related or nondrug-related adverse response; also recorded: did not report any adverse effects; also recorded: no post-treatment adverse events
improvement of the Lysholm Knee score ([5]; 2 mg/kg IM twice weekly for 3 weeks, four weeks after the last injection, 37 to 65): 43%
Lysholm Knee score post-treatment ([5]; 2 mg/kg IM twice weekly for 3 weeks, four weeks after the last injection, scale 0-100, pre-treatment score 37): 65
NRS pain score post-treatment ([5]; 2 mg/kg IM twice weekly for 3 weeks, scale 0-10, pre-treatment score 8): 0
